TGI data for eight molecules are collected here from PubChem BioAssay (NCI).

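Five compound concentrations were applied to cells in 96-well plates for 48 hours; endpoints were derived by simple linear interpolation of the resulting dose-response curve. TGI marks complete inhibition of growth.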

Test systems include CCRF-CEM leukemia; EKVX NSCLC; CAKI-1 renal; MOLT-4 leukemia; A498 renal; HCT-116 colon; HOP-92 NSCLC; SR leukemia; MDA-MB-231 breast; HL-60(TB) leukemia; SW-620 colon; KM12 colon; TK-10 renal; K-562 leukemia; UACC-257 melanoma; PC-3 prostate; SK-MEL-28 melanoma; HCT-15 colon; RPMI-8226 leukemia.
Common to all, as to assay: growth of human tumour cells (NCI), 48 h

Regarding `CCOC(=O)CCC(NC(=O)Cc1ccc(Nc2nc3ccccc3nc2-c2ccccc2)cc1)C(=O)OCC` (stereo not given), the TGI in the assay with CCRF-CEM leukemia, in the assay on EKVX NSCLC, with CAKI-1 renal, in the assay with MOLT-4 leukemia, with A498 renal and in the assay on HCT-116 colon was above 100 µM in each case. In addition, the TGI in the assay on HOP-92 NSCLC is 45.8 µM; in the assay on SR leukemia it was above 100 µM; with MDA-MB-231 breast it was 53.3 µM; in the assay with HL-60(TB) leukemia, above 100 µM; in the assay on SW-620 colon it was above 100 µM; in the assay with KM12 colon it was above 100 µM. Also, the TGI was 58.5 µM in the assay on TK-10 renal; above 100 µM with K-562 leukemia; above 100 µM in the assay with UACC-257 melanoma; above 100 µM in the assay on PC-3 prostate; above 100 µM in the assay with SK-MEL-28 melanoma; above 100 µM in the assay with HCT-15 colon.
Turning to `O=C1NC(N2CCOCC2)=N/C1=C\c1cccs1`, the TGI with CCRF-CEM leukemia, in the assay on RPMI-8226 leukemia, in the assay on EKVX NSCLC, in the assay with CAKI-1 renal, in the assay with MOLT-4 leukemia and in the assay on HCT-116 colon was above 100 µM in each case. The TGI in the assay with HOP-92 NSCLC, with SR leukemia, with MDA-MB-231 breast, in the assay with HL-60(TB) leukemia, with SW-620 colon and in the assay with KM12 colon was above 100 µM throughout. The TGI in the assay with TK-10 renal, in the assay on UACC-257 melanoma, with PC-3 prostate, in the assay with SK-MEL-28 melanoma and in the assay with HCT-15 colon was above 100 µM throughout.
As for `O=C(O)C1CC2C3CCC2C1C3=O` (stereo not given), the TGI in the assay on CCRF-CEM leukemia, in the assay on EKVX NSCLC, in the assay on CAKI-1 renal, in the assay on MOLT-4 leukemia, in the assay with A498 renal and in the assay on HCT-116 colon was above 100 µM in each case. For the same molecule, the TGI in the assay with HOP-92 NSCLC, with SR leukemia, with MDA-MB-231 breast, in the assay on HL-60(TB) leukemia, with SW-620 colon and in the assay on KM12 colon was above 100 µM throughout. In addition, the TGI in the assay with TK-10 renal, with K-562 leukemia, in the assay on UACC-257 melanoma, in the assay with PC-3 prostate, in the assay with SK-MEL-28 melanoma and in the assay on HCT-15 colon was above 100 µM each time.
In the case of `CC(C)=CCOc1cc(NC(=S)c2ccoc2C)ccc1Cl`, the TGI in the assay with CCRF-CEM leukemia, with RPMI-8226 leukemia, in the assay on EKVX NSCLC, with CAKI-1 renal, in the assay with MOLT-4 leukemia and with A498 renal was above 100 µM throughout. Moreover, the TGI in the assay with HCT-116 colon, in the assay on HOP-92 NSCLC, in the assay on SR leukemia, with MDA-MB-231 breast, in the assay on SW-620 colon and in the assay with KM12 colon was above 100 µM each time. Also, the TGI in the assay with TK-10 renal, in the assay with UACC-257 melanoma, in the assay on PC-3 prostate, with SK-MEL-28 melanoma and in the assay with HCT-15 colon was above 100 µM throughout.
As to `CCc1nnc(CC)n1NCCCC(=O)O`, the TGI in the assay on CCRF-CEM leukemia, in the assay with RPMI-8226 leukemia, in the assay on EKVX NSCLC, with MOLT-4 leukemia, in the assay on HCT-116 colon and in the assay on HOP-92 NSCLC was above 100 µM each time. Moreover, the TGI in the assay on SR leukemia, with MDA-MB-231 breast, with SW-620 colon, with KM12 colon, in the assay on TK-10 renal and in the assay with K-562 leukemia was above 100 µM in each case. In addition, the TGI in the assay on UACC-257 melanoma, in the assay with PC-3 prostate, in the assay on SK-MEL-28 melanoma and in the assay on HCT-15 colon was above 100 µM in each case.
`Cc1nc2sc(CCl)nn2c(=O)c1Cl`: the TGI with CCRF-CEM leukemia is 24.9 µM; in the assay with RPMI-8226 leukemia it was 24.4 µM; with EKVX NSCLC it was 27.7 µM; with CAKI-1 renal, 24.8 µM; in the assay on MOLT-4 leukemia it was 26.7 µM; in the assay on HCT-116 colon it was 26.2 µM. The TGI in the assay on HOP-92 NSCLC is 18.7 µM; in the assay on SR leukemia, 26.2 µM; with MDA-MB-231 breast, 36.4 µM; with HL-60(TB) leukemia, 29.8 µM; with SW-620 colon, 25.6 µM; in the assay on KM12 colon, 25.2 µM. In addition, the TGI was 25 µM with TK-10 renal; 28.1 µM in the assay with K-562 leukemia; 29.7 µM with UACC-257 melanoma; 25.1 µM with PC-3 prostate; 27.3 µM with SK-MEL-28 melanoma; 23.8 µM in the assay on HCT-15 colon.
Consider `O=c1c2cc(S(=O)(=O)Nc3ccccc3Cl)ccc2ncn1NS(=O)(=O)c1ccc(Br)cc1`, for which the TGI in the assay on CCRF-CEM leukemia, in the assay on RPMI-8226 leukemia, in the assay with EKVX NSCLC, in the assay on CAKI-1 renal, in the assay with MOLT-4 leukemia and in the assay with HCT-116 colon was above 37.5 µM throughout. In addition, the TGI with HOP-92 NSCLC, with SR leukemia, in the assay on MDA-MB-231 breast, with HL-60(TB) leukemia, with SW-620 colon and in the assay with KM12 colon was above 37.5 µM throughout. In addition, the TGI in the assay with TK-10 renal, with K-562 leukemia, with UACC-257 melanoma, in the assay on PC-3 prostate, in the assay with SK-MEL-28 melanoma and in the assay on HCT-15 colon was above 37.5 µM throughout.
In the case of `COc1ccccc1C1CC(=O)CC(c2ccccc2OC)C12C(=O)NC(=S)NC2=O` (stereo not given), the TGI in the assay on CCRF-CEM leukemia is above 100 µM; with RPMI-8226 leukemia, 52.7 µM; in the assay on EKVX NSCLC, above 100 µM; with CAKI-1 renal it was above 100 µM; in the assay on MOLT-4 leukemia, 95.8 µM; in the assay with HCT-116 colon, above 100 µM. The TGI with HOP-92 NSCLC was above 100 µM; in the assay with SR leukemia, above 100 µM; in the assay on MDA-MB-231 breast, above 100 µM; with HL-60(TB) leukemia, 69.5 µM; with SW-620 colon, above 100 µM; in the assay with KM12 colon it was above 100 µM. Besides, the TGI with TK-10 renal was above 100 µM; in the assay with K-562 leukemia it was above 100 µM; in the assay with UACC-257 melanoma, above 100 µM; in the assay on PC-3 prostate it was above 100 µM; with SK-MEL-28 melanoma it was 95.6 µM; in the assay on HCT-15 colon, above 100 µM.
